Measurements: PubChem BioAssay AID1259407 (Chemical Carcinogenesis Research Information System (CCRIS), 2018)
The source made the active and inactive calls. How the calls were made is not given here.

System: CCRIS mutagenicity, Ames/micronucleus/aberration tests
Assay: CCRIS mutagenicity studies
[1] = Test System: AMES SALMONELLA TYPHIMURIUM, Strain/Indicator: TA98, Metabolic Activation: NONE, Method: PREINCUBATION
[2] = Test System: AMES SALMONELLA TYPHIMURIUM, Strain/Indicator: TA100, Metabolic Activation: NONE, Method: PREINCUBATION
[3] = Test System: AMES SALMONELLA TYPHIMURIUM, Strain/Indicator: TA1535, Metabolic Activation: NONE, Method: PREINCUBATION
[4] = Test System: AMES SALMONELLA TYPHIMURIUM, Strain/Indicator: TA98, Metabolic Activation: RAT, LIVER, S-9, AROCLOR 1254, Method: STANDARD PLATE
[5] = Test System: AMES SALMONELLA TYPHIMURIUM, Strain/Indicator: TA98, Metabolic Activation: NONE, Method: STANDARD PLATE
[6] = Test System: AMES SALMONELLA TYPHIMURIUM, Strain/Indicator: TA100, Metabolic Activation: NONE, Method: STANDARD PLATE

Structure (SMILES): [O-][Br+2]([O-])O
- mutagenic call (End Point: IN VITRO CHROMOSOMAL ABERRATIONS, Test System: CHL/IU CELLS, Metabolic Activation: NONE): active; positive (structural changes)
- mutagenic call (End Point: IN VITRO MICRONUCLEUS, Test System: CHL/IU CELLS, Metabolic Activation: NONE): active; positive
- mutagenic call (End Point: IN VIVO MICRONUCLEUS, Test System: BONE MARROW POLYCHROMATIC ERYTHROCYTES, Species: MOUSE, Strain/Sex: DDY/MALE, Route: ORAL): active; positive
- mutagenic call (End Point: In vitro chromosomal aberrations, Test System: Chinese hamster lung (CHL) cells, Metabolic Activation: None): active; positive (structural changes)
- mutagenic call (End Point: In vitro micronucleus, Test System: Human TK6 lymphoblastoid cells, Metabolic Activation: None): active; positive
- mutagenic call (End Point: In vivo micronucleus, Test System: Peripheral blood normochromatic erythrocytes, Species: Mouse, Strain/Sex: Tg.AC hemizygous/Female, Route: Dermal): active; positive
- mutagenic call (End Point: In vivo micronucleus, Test System: Peripheral blood normochromatic erythrocytes, Species: Mouse, Strain/Sex: Tg.AC hemizygous/Female, Route: Oral): active; positive
- mutagenic call (End Point: In vivo micronucleus, Test System: Peripheral blood normochromatic erythrocytes, Species: Mouse, Strain/Sex: Tg.AC hemizygous/Male, Route: Dermal): active; positive
- mutagenic call (End Point: In vivo micronucleus, Test System: Peripheral blood normochromatic erythrocytes, Species: Mouse, Strain/Sex: Tg.AC hemizygous/Male, Route: Oral): active; positive
- mutagenic call (End Point: In vivo micronucleus, Test System: Peripheral blood normochromatic erythrocytes, Species: Mouse, Strain/Sex: p53 Haploinsufficient/Female, Route: Oral): active; positive
- mutagenic call (End Point: In vivo micronucleus, Test System: Peripheral blood normochromatic erythrocytes, Species: Mouse, Strain/Sex: p53 Haploinsufficient/Male, Route: Oral): active; positive
- mutagenic call (End Point: In vivo mutagenicity, Test System: Kidney, Species: Rat, Strain/Sex: Big Blue/male, Route: Oral): active; positive for mutants and total mutation frequencies and frequency of gc to ta tr
- mutagenic call (Test System: AMES SALMONELLA TYPHIMURIUM, Strain/Indicator: TA97, Metabolic Activation: HAMSTER, LIVER, S-9, AROCLOR 1254 (10%), Method: PREINCUBATION): inactive; negative
- mutagenic call (Test System: AMES SALMONELLA TYPHIMURIUM, Strain/Indicator: TA97, Metabolic Activation: HAMSTER, LIVER, S-9, AROCLOR 1254 (30%), Method: PREINCUBATION): inactive; negative
- mutagenic call (Test System: AMES SALMONELLA TYPHIMURIUM, Strain/Indicator: TA97, Metabolic Activation: RAT, LIVER, S-9, AROCLOR 1254 (30%), Method: PREINCUBATION): inactive; negative
- mutagenic call (Test System: AMES SALMONELLA TYPHIMURIUM, Strain/Indicator: TA97, Metabolic Activation: RAT, LIVER, S-9, AROCLOR 1254, Method: PREINCUBATION): inactive; negative
- mutagenic call (Test System: AMES SALMONELLA TYPHIMURIUM, Strain/Indicator: TA98, Metabolic Activation: HAMSTER, LIVER, S-9, AROCLOR 1254 (30%), Method: PREINCUBATION): inactive; negative
- mutagenic call [1]: inactive; negative
- mutagenic call (Test System: AMES SALMONELLA TYPHIMURIUM, Strain/Indicator: TA98, Metabolic Activation: RAT, LIVER, S-9, AROCLOR 1254 (30%), Method: PREINCUBATION): inactive; negative
- mutagenic call (Test System: AMES SALMONELLA TYPHIMURIUM, Strain/Indicator: TA100, Metabolic Activation: HAMSTER, LIVER, S-9, AROCLOR 1254 (30%), Method: PREINCUBATION): inactive; negative
- mutagenic call [2]: inactive; negative
- mutagenic call (Test System: AMES SALMONELLA TYPHIMURIUM, Strain/Indicator: TA100, Metabolic Activation: RAT, LIVER, S-9, AROCLOR 1254 (30%), Method: PREINCUBATION): inactive; negative
- mutagenic call (Test System: AMES SALMONELLA TYPHIMURIUM, Strain/Indicator: TA102, Metabolic Activation: NONE, Method: PREINCUBATION): inactive; negative
- mutagenic call (Test System: AMES SALMONELLA TYPHIMURIUM, Strain/Indicator: TA102, Metabolic Activation: RAT, LIVER, S-9, AROCLOR 1254, Method: PREINCUBATION): inactive; negative
- mutagenic call (Test System: AMES SALMONELLA TYPHIMURIUM, Strain/Indicator: TA1535, Metabolic Activation: HAMSTER, LIVER, S-9, AROCLOR 1254 (10%), Method: PREINCUBATION): active; positive
- mutagenic call [3]: inactive; negative
- mutagenic call (Test System: AMES SALMONELLA TYPHIMURIUM, Strain/Indicator: TA1537, Metabolic Activation: HAMSTER, LIVER, S-9, AROCLOR 1254 (10 OR 30%), Method: PREINCUBATION): inactive; negative
- mutagenic call (Test System: AMES SALMONELLA TYPHIMURIUM, Strain/Indicator: TA1537, Metabolic Activation: NONE, Method: PREINCUBATION): inactive; negative
- mutagenic call (Test System: AMES SALMONELLA TYPHIMURIUM, Strain/Indicator: TA1537, Metabolic Activation: RAT, LIVER, S-9, AROCLOR 1254 (10 OR 30%), Method: PREINCUBATION): inactive; negative
- mutagenic call (Test System: CHINESE HAMSTER V-79 CELLS, Strain/Indicator: V-79-UL (HPRT)/6-THIOGUANINE, Metabolic Activation: NONE, Method: SUSPENSION/PLATE): active; positive
- mutagenic call (Test System: Human lymphoblastoid cells, Strain/Indicator: TK6 (HPRT)/6-thioguanine, Metabolic Activation: None, Method: Suspension/Well): active; positive

Structure (SMILES): COc1ccc([C@H]2O[C@H]2C)cc1
- mutagenic call [1]: inactive; negative
- mutagenic call [2]: active; positive
- mutagenic call [3]: active; positive

Structure (SMILES): CC(=O)Nc1ccc2c(c1OC(=O)c1ccccc1)Cc1ccccc1-2
- mutagenic call [4]: inactive; negative

Structure (SMILES): Cc1cc(N(C)C)ccc1N=Nc1ccccc1
- mutagenic call (Test System: AMES SALMONELLA TYPHIMURIUM, Strain/Indicator: TA98, Metabolic Activation: RAT, LIVER, MICROSOMES, 2-METHYL-4-DIMETHYLAMINOAZOBENZENE, Method: PREINCUBATION): inactive; negative
- mutagenic call (Test System: AMES SALMONELLA TYPHIMURIUM, Strain/Indicator: TA98, Metabolic Activation: RAT, LIVER, MICROSOMES, AROCLOR 1254, Method: PREINCUBATION): active; positive
- mutagenic call (Test System: AMES SALMONELLA TYPHIMURIUM, Strain/Indicator: TA98, Metabolic Activation: RAT, LIVER, MICROSOMES, Method: PREINCUBATION): inactive; negative
- mutagenic call [4]: active; positive
- mutagenic call (Test System: AMES SALMONELLA TYPHIMURIUM, Strain/Indicator: TA98, Metabolic Activation: RAT, LIVER, S-9, KC500 OR PHENOBARBITAL, Method: LIQUID SUSPENSION): active; positive
- mutagenic call (Test System: AMES SALMONELLA TYPHIMURIUM, Strain/Indicator: TA100, Metabolic Activation: RAT, LIVER, S-9, AROCLOR 1254, Method: STANDARD PLATE): active; positive
- mutagenic call (Test System: AMES SALMONELLA TYPHIMURIUM, Strain/Indicator: TA100, Metabolic Activation: RAT, LIVER, S-9, KC500 OR PHENOBARBITAL, Method: LIQUID SUSPENSION): active; positive
- mutagenic call (Test System: UDS RODENT HEPATOCYTES, Strain/Indicator: THY INCORP (NON-S-PHASE), Method: AUTORADIOGRAPHY): active; positive

Structure (SMILES): O=[N+]([O-])c1cc([N+](=O)[O-])c2c3c(c4cccc5ccc1c2c54)CCCC3
- mutagenic call [5]: active; positive
- mutagenic call [4]: active; positive

Structure (SMILES): O=S(=O)(O)c1ccc2cc(O)c(S(=O)(=O)O)cc2c1
- mutagenic call [1]: inactive; negative
- mutagenic call (Test System: AMES SALMONELLA TYPHIMURIUM, Strain/Indicator: TA98, Metabolic Activation: RAT, LIVER, S-9, PHENOBARBITAL, Method: PREINCUBATION): inactive; negative
- mutagenic call [2]: inactive; negative
- mutagenic call (Test System: AMES SALMONELLA TYPHIMURIUM, Strain/Indicator: TA100, Metabolic Activation: RAT, LIVER, S-9, PHENOBARBITAL, Method: PREINCUBATION): inactive; negative

Structure (SMILES): COc1ccc([N+](=O)[O-])c2c(NCCCN(C)C)c3ccccc3nc12
- mutagenic call [5]: active; positive
- mutagenic call [6]: inactive; negative

Structure (SMILES): COc1cccc2c1C(=O)c1c(O)c3c(c(O)c1C2=O)C[C@@](O)(C(=O)CO)C[C@@H]3O[C@H]1C[C@H](N)[C@@H](O)[C@H](C)O1
- mutagenic call (Test System: AMES SALMONELLA TYPHIMURIUM, Strain/Indicator: TA97, Metabolic Activation: NONE, Method: STANDARD PLATE): inactive; negative
- mutagenic call [5]: active; positive
- mutagenic call [6]: inactive; negative
- mutagenic call (Test System: AMES SALMONELLA TYPHIMURIUM, Strain/Indicator: TA102, Metabolic Activation: NONE, Method: STANDARD PLATE): active; positive
- mutagenic call (Test System: AMES SALMONELLA TYPHIMURIUM, Strain/Indicator: TA104, Metabolic Activation: NONE, Method: STANDARD PLATE): inactive; negative
- mutagenic call (Test System: AMES SALMONELLA TYPHIMURIUM, Strain/Indicator: TA2637, Metabolic Activation: NONE, Method: STANDARD PLATE): active; positive
